Data: BigSolDB 2.1

C[N+](C)(C)CC(=O)[O-]
Conditions	solubility (mole fraction)
in ethanol, 282.95 K	0.0264
in ethanol, 288.15 K	0.0298
in ethanol, 293.65 K	0.0336
in ethanol, 298.45 K	0.0372
in ethanol, 303.05 K	0.041
in isopropanol, 283.45 K	0.00458
in isopropanol, 288.65 K	0.0054
in isopropanol, 293.15 K	0.00622
in isopropanol, 298.45 K	0.0071
in isopropanol, 303.35 K	0.00823
in methanol, 283.15 K	0.117
in methanol, 288.15 K	0.121
in methanol, 293.55 K	0.126
in methanol, 298.25 K	0.131
in methanol, 303.2 K	0.136
in n-butanol, 283.45 K	0.00812
in n-butanol, 288.7 K	0.00964
in n-butanol, 293.05 K	0.0109
in n-butanol, 298.35 K	0.0125
in n-butanol, 302.9 K	0.0142
in n-propanol, 282.85 K	0.0134
in n-propanol, 288.15 K	0.0154
in n-propanol, 293.55 K	0.0177
in n-propanol, 298.23 K	0.02
in n-propanol, 303.45 K	0.0225
in water, 283.15 K	0.184
in water, 288.25 K	0.189
in water, 293.2 K	0.194
in water, 298.35 K	0.2
in water, 303.25 K	0.206
